This is an account of results in paper PMC10385865, “Synthesis and Anticancer Activity of Novel Dual Inhibitors of Human Protein Kinases CK2 and PIM-1” (Pharmaceutics, 2023).

One experiment deals with CK2. Details: method as in PMID 33807474. The following applies: Figure 1, representative CK2 inhibitors; cited from earlier work.
Experiment [1] concerns K-562 (chronic myelogenous leukemia). Briefly: MTT-based viability assay, K-562. The experiment is classed as cell-based, human. Particulars: for IC50: Homo sapiens, K562, MTT, 48 h, read-out: IC50 K-562; for SI (selectivity index) K-562: IC50 Vero/IC50 cancer cells. As for the experimental part:
(§1) After incubation with the tested compounds, an MTT test was performed as described previously. Optical densities were measured at 570 nm using a BioTek microplate reader (BioTek Instruments, Inc., Winooski, VT, USA). All measurements were carried out in a minimum of three biological replicates.
(§2) . The IC50 values describing the half-maximal effective concentration of each tested compound were calculated and are summarized in Table 2. […].

The target of another experiment is T1, PIM-1 (Homo sapiens, UniProt P11309).
T1 construct: made in house
T1 sequence (P11309 whole entry): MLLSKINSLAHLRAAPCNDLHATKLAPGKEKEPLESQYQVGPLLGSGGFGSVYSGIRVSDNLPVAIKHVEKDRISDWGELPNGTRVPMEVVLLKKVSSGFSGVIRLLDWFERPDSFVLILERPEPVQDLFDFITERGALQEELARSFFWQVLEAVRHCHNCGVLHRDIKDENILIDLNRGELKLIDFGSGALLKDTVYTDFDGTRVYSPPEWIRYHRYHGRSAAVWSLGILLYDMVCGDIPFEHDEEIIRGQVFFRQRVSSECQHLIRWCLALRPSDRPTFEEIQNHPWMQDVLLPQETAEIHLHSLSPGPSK
The experiment in a line: P81 filter isotopic (radiometric) kinase assay, PIM-1. It is filed as biochemical. The following applies: substrate peptide […], Ki from IC50 by Cheng–Prusoff. How it is done:
(§3) The obtained compounds were tested for their inhibitory activity toward human CK2α, human CK2 holoenzyme, and PIM-1 using a P81 filter isotopic assay as described previously. […] The experimental data were fitted to the sigmoidal dose–response equation, i.e., (variable slope) Y = Bottom + (Top-Bottom)/(1 + 10^((LogIC50−X)∗HillSlope), in GraphPad Prism (Prism 9, v. 9.0.1).
(§4) Inhibition of the human CK2 catalytic subunit (CK2α), CK2 holoenzyme (CK2α2β2), and PIM-1 by the newly obtained compounds was evaluated using a radiometric assay (Table 1, Figure S2). The synthetic peptide […] was used as the substrate of CK2, and peptide […] was used as the substrate of PIM-1. The values of the inhibition constant (Ki) were calculated using the Cheng–Prusoff equation: Ki = IC50/(1 + [S]/Km).

Another experiment has as its target T2, human CK2α (Homo sapiens, UniProt P68400).
T2 construct: made in house
The experiment in a line: P81 filter isotopic (radiometric) kinase assay, CK2 catalytic subunit. It is filed as biochemical. Particulars: substrate peptide […], Ki from IC50 by Cheng–Prusoff. As for the experimental part: as §3, §4

Experiment [2] deals with T3, human CK2 holoenzyme (CK2α2β2) (Homo sapiens, UniProt P68400).
T3 construct: made in house
T3 sequence (P68400 whole entry): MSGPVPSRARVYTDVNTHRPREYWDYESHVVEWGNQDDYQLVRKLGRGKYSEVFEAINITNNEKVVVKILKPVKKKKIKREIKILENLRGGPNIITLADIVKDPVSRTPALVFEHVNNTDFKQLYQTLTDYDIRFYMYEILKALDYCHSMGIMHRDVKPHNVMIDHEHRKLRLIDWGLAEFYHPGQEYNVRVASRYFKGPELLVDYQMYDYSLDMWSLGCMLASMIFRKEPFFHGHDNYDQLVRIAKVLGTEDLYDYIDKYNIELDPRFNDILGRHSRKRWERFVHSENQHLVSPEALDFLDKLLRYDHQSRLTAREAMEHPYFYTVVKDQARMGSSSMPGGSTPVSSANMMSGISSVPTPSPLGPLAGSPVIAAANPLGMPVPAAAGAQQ
T3 sequence (P67870 whole entry partner): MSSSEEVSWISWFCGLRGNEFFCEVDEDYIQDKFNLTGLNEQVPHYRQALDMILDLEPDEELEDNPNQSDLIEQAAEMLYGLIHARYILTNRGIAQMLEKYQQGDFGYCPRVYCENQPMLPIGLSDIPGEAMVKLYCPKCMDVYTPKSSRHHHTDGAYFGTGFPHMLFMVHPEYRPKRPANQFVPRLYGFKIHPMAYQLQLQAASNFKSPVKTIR
Briefly: P81 filter isotopic (radiometric) kinase assay, CK2 holoenzyme. It is filed as biochemical. The following applies: substrate peptide […], Ki from IC50 by Cheng–Prusoff. How it is done: as §3, §4

In another experiment the test system is MCF-7 (breast carcinoma). The experiment in a line: MTT-based viability assay, MCF-7. It is filed as cell-based, human. The following applies: for IC50: Homo sapiens, MCF7, MTT, 48 h, read-out: IC50 MCF-7; for SI (selectivity index) MCF-7: IC50 Vero/IC50 cancer cells. As for the experimental part: as §1, §2
In general terms: Tetrazolium dyes change colour on reduction, which living cells bring about.

In a further experiment the test system is Vero cells. The experiment in a line: MTT-based viability assay, non-cancerous Vero cells. It is filed as cell-based, Cercopithecus aethiops. Particulars: Chlorocebus sabaeus, MTT, 48 h, read-out: IC50 Vero. How it is done:
as §1, §2

In experiment [3] the test system is CCRF-CEM (acute lymphoblastic leukemia). The experiment in a line: MTT-based viability assay, CCRF-CEM. It is filed as cell-based, human. Particulars: for IC50: Homo sapiens, CCRF-CEM, MTT, 48 h, read-out: IC50 CCRF-CEM; for SI (selectivity index) CCRF-CEM: IC50 Vero/IC50 cancer cells. How it is done:
as §1, §2

The target in the next experiment is PIM1. Also noted: method as in PMID 23360763, PMID 24442476, PMID 34200807. The following applies: Figure 1, dual CK2/PIM-1 inhibitors; cited from earlier work.
The next experiment deals with CK2-α. Details: method as in PMID 23360763, PMID 24442476, PMID 34200807. Particulars: Figure 1, dual CK2/PIM-1 inhibitors; cited from earlier work.

T2 sequence (P68400 whole entry): as the sequence (P68400 whole entry) above

As to `OC[C@H]1O[C@@H](n2cnc3cc(Cl)c(Cl)cc32)[C@H](O)[C@@H]1O` [DRB, 5,6-dichloro-1-β-D-ribofuranosylbenzimidazole], on CK2, the inhibition constant (Ki) was 23 µM.

With `CCN(CC)CC(O)CNc1nc2c(Br)c(Br)c(Br)c(Br)c2[nH]1` (racemic) [rac-9, 1-(Diethylamino)-3-[(4,5,6,7-tetrabromo-1H-benzimidazol-2-yl)amino]propan-2-ol], the half-maximal inhibitory concentration (IC50) in experiment [1] is 11.6 ± 2.85 µM; with MCF-7 (breast carcinoma) it was 10.8 ± 0.23 µM; in the experiment with Vero cells, 12 ± 0.21 µM; in experiment [3], 13.6 ± 0.84 µM. For the same compound, the “SI (selectivity index) K-562” value in experiment [1] amounted to 1.03. Besides, the Ki was determined as 0.267 µM at PIM-1, 1.67 µM on human CK2α and 0.605 µM in experiment [2]. For the same compound, the “SI (selectivity index) MCF-7” value in the experiment on MCF-7 (breast carcinoma) was 1.11. Besides, the “SI (selectivity index) CCRF-CEM” value in [3] is on record as 0.88.

As for `Cc1nc2c(Br)c(Br)c(Br)c(Br)c2n1CCCO` [N^1-PrOH-2-MeTBBi, 3-(4,5,6,7-tetrabromo-2-methyl-1H-1,3-benzodiazol-1-yl)propan-1-ol], the Ki on PIM1 was 0.15 µM; on CK2-α, 0.05 µM.

Turning to `Brc1c(Br)c(Br)c2[nH]cnc2c1Br` [TBBi, 4,5,6,7-tetrabromo-1H-benzimidazole], the Ki on CK2 is 0.3 µM.

Take `OCC(O)CNc1nc2c(Br)c(Br)c(Br)c(Br)c2[nH]1` (racemic) [rac-11, 3-[(4,5,6,7-Tetrabromo-1H-benzimidazol-2-yl)amino]propane-1,2-diol]: the IC50 in experiment [1] worked out at 41.5 ± 8.45 µM; in the experiment on MCF-7 (breast carcinoma) it was 17.2 ± 0.39 µM; in the experiment with Vero cells, 41.53 ± 0.1 µM; in [3], 33.8 ± 0.26 µM. Also, the “SI (selectivity index) K-562” value in experiment [1] amounted to 1.00. Further, the inhibition constant (Ki) was 0.073 µM on PIM-1, 0.151 µM at human CK2α and 0.089 µM in experiment [2]. The “SI (selectivity index) MCF-7” value in the experiment with MCF-7 (breast carcinoma) turned out to be 2.41. The “SI (selectivity index) CCRF-CEM” value in [3] is on record as 1.23.

Consider `OC[C@H]1O[C@@H](n2cnc3c(Br)c(Br)c(Br)c(Br)c32)C[C@@H]1O` [TDB (K164), 1-(β-D-2′-deoxyribofuranosyl)-4,5,6,7-tetrabromo-1H-benzimidazole], for which the Ki on PIM1 was 0.04 µM.

Regarding `OCC(CO)Nc1nc2c(Br)c(Br)c(Br)c(Br)c2[nH]1` [Compound 10, 2-[(4,5,6,7-Tetrabromo-1H-benzimidazol-2-yl)amino]propane-1,3-diol], the 50% inhibitory concentration (IC50) in experiment [1] is 38.1 ± 5.56 µM; with MCF-7 (breast carcinoma), 16.6 ± 0.23 µM; in the experiment on Vero cells it was 25.19 ± 0.1 µM; in [3] it was 24.47 ± 0.21 µM. Also, the “SI (selectivity index) K-562” value in [1] is given as 0.66. Further, the Ki at PIM-1 was determined as 0.093 µM; at human CK2α, 0.139 µM; in experiment [2], 0.124 µM. For the same compound, the “SI (selectivity index) MCF-7” value in the experiment on MCF-7 (breast carcinoma) is reported as 1.51. Besides, the “SI (selectivity index) CCRF-CEM” value in [3] is 1.03.

Regarding `OCCCNc1nc2c(Br)c(Br)c(Br)c(Br)c2[nH]1` [Compound 7, 3-[(4,5,6,7-Tetrabromo-1H-benzimidazol-2-yl)amino]propan-1-ol], the half-maximal inhibitory concentration (IC50) in [1] was determined as 33.7 ± 4.92 µM; with MCF-7 (breast carcinoma), 18.2 ± 0.3 µM; in the experiment on Vero cells it was 29.46 ± 0.12 µM; in [3] it was 25.6 ± 0.54 µM. In addition, in [1], the “SI (selectivity index) K-562” value is recorded as 0.87. Further, the inhibition constant (Ki) on PIM-1 was 0.082 µM; at human CK2α, 0.156 µM; in experiment [2], 0.114 µM. The “SI (selectivity index) MCF-7” value in the experiment on MCF-7 (breast carcinoma) was determined as 1.62. The “SI (selectivity index) CCRF-CEM” value in experiment [3] was 1.15.

On to `CC(O)CNc1nc2c(Br)c(Br)c(Br)c(Br)c2[nH]1` (racemic) [rac-5, 1-[(4,5,6,7-Tetrabromo-1H-benzimidazol-2-yl)amino]propan-2-ol], for which the half-maximal inhibitory concentration (IC50) in experiment [1] came to 38.7 ± 8.08 µM; with MCF-7 (breast carcinoma) it was 16.9 ± 0.3 µM; with Vero cells, 22.58 ± 0.13 µM; in experiment [3], 21.7 ± 0.86 µM. Further, the “SI (selectivity index) K-562” value in experiment [1] was determined as 0.58. For the same compound, the Ki at PIM-1 came out at 0.064 µM; on human CK2α, 0.296 µM; in experiment [2] it was 0.127 µM. Moreover, the “SI (selectivity index) MCF-7” value in the experiment with MCF-7 (breast carcinoma) came out at 1.34. Besides, in [3], the “SI (selectivity index) CCRF-CEM” value came to 1.04.

As to `CN(CCO)c1nc2c(Br)c(Br)c(Br)c(Br)c2[nH]1` [Compound 8, 2-[Methyl(4,5,6,7-tetrabromo-1H-benzimidazol-2-yl)amino]ethanol], the half-maximal inhibitory concentration (IC50) worked out at 40 ± 7.45 µM in experiment [1], 15.1 ± 0.39 µM in the experiment on MCF-7 (breast carcinoma), 16.1 ± 0.27 µM with Vero cells and 17.4 ± 0.27 µM in experiment [3]. In addition, the “SI (selectivity index) K-562” value in experiment [1] stood at 0.40. Besides, the Ki at PIM-1 was 0.071 µM; at human CK2α, 0.256 µM; in [2], 0.072 µM. Also, the “SI (selectivity index) MCF-7” value with MCF-7 (breast carcinoma) is given as 1.06. Moreover, the “SI (selectivity index) CCRF-CEM” value in experiment [3] is listed as 0.92.

As to `O=c1[nH]c2c(Br)c(Br)c(Br)c(Br)c2[nH]1` [Compound K32, 4,5,6,7-tetrabromo-2,3-dihydro-1H-1,3-benzodiazol-2-one], the Ki on CK2 is 0.15 µM.

As to `C[C@H](O)CNc1nc2c(Br)c(Br)c(Br)c(Br)c2[nH]1` [(S)-5, (2S)-1-[(4,5,6,7-tetrabromo-1H-benzimidazol-2-yl)amino]propan-2-ol], the half-inhibitory concentration (IC50) in experiment [1] stood at 39.3 ± 9.05 µM; in the experiment with MCF-7 (breast carcinoma), 16.6 ± 0.3 µM; with Vero cells, 25.2 ± 0.54 µM; in experiment [3], 23.2 ± 4.01 µM. In addition, the “SI (selectivity index) K-562” value in experiment [1] is reported as 0.64. Also, the Ki stood at 0.099 µM at PIM-1, 0.271 µM at human CK2α and 0.167 µM in experiment [2]. Moreover, the “SI (selectivity index) MCF-7” value in the experiment with MCF-7 (breast carcinoma) was determined as 1.52. Further, the “SI (selectivity index) CCRF-CEM” value in experiment [3] is 1.11.

Regarding “4,5,6,7-tetrabromo-2,3-dihydro-1H-1,3-benzodiazol-2-one [Compound K37]”, on CK2, the inhibitory constant (Ki) was 0.07 µM.

For `C[C@@H](O)CNc1nc2c(Br)c(Br)c(Br)c(Br)c2[nH]1` [(R)-5, (2R)-1-[(4,5,6,7-tetrabromo-1H-benzimidazol-2-yl)amino]propan-2-ol], the 50% inhibitory concentration (IC50) in experiment [1] was 39.6 ± 8.11 µM; in the experiment with MCF-7 (breast carcinoma) it was 16.1 ± 0.19 µM; in the experiment with Vero cells, 28.3 ± 0.43 µM; in [3], 22.31 ± 0.1 µM. Also, the “SI (selectivity index) K-562” value in experiment [1] was found to be 0.71. The results for the inhibition constant (Ki) (on PIM-1; on human CK2α; in [2]) were 0.089 µM, 0.394 µM and 0.104 µM, respectively. The “SI (selectivity index) MCF-7” value in the experiment with MCF-7 (breast carcinoma) is 1.76. Besides, the “SI (selectivity index) CCRF-CEM” value in experiment [3] is listed as 1.27.

The Ki is a dissociation constant, usually derived from enzyme kinetics or from competition with a known ligand. As a reminder, the IC50 is the concentration at which inhibition is half-maximal.
